Structures can show the parent of a compound that is named as a salt. Where two headings read alike, the source gives them in different places.
Molecular target: T1, recombinant human MCHR1 receptors (Homo sapiens, UniProt Q99705)
T1 construct: expressed in transfected cells
Assay: MCHR Filter Binding Assay (competition binding with [Phe13[125I]Tyr19]-MCH)
Description: Competition binding assay was conducted in MultiScreen […] glass fiber type B filter plates (96-well, Millipore). The MultiScreen plates were pretreated by incubation with 0.5% polyvinylpyrrolidone solution containing 1% BSA and 0.1% tween-20 for 12 hours at 4° C. and washed five times with ice-cold 10 mM Tris buffer, pH 7.5, followed by incubation with 200 µL of binding buffer (50 mM HEPES, 2.5 mM CaCl2, 0.05 mM BSA, 1 mM phenanthroline, 0.03 mM Triton X-100) for 5 min at room temperature and plates were drained before the binding reactions. The binding assay was performed by pre-incubating 2.8 µg of membranes from CHO-K1 cells stably expressing the recombinant human MCHR1 receptors, and various concentrations (final concentration 0.059 nM to 45 µM) of unlabeled MCH or antagonists in binding buffer for 15 min at room temperature. The competition reaction was started by adding final concentration (0.2 nM) [Phe^13[^125I]Tyr^19]-MCH (PerkinElmer). The final volume of the reaction was 90 µL per well. After 60 min incubation time at room temperature the reaction was stopped by rapid filtration over 96-well filter plates. Following termination of the binding reactions, the filters were washed with ice-cold binding buffer (4×200 µL), and were air dried for 30 min. Scintillation cocktail (60 µL) was added to each well and radioactivity bound to the plates was determined using a Micro-beta plate reader (Wallace/PerkinElmer). The inhibition potency of antagonist was expressed as IC50, the concentration of compound at which the binding of radio labeled MCH to MCHR1 was inhibited by 50%.

[1] = membranes from CHO-K1 cells stably expressing human MCHR1, 0.2 nM radiolabeled MCH, read-out: Activity in MCHR binding assays (IC50 class)
[2] = inhibition of binding of MCH to MCHR
[3] = inhibition of binding of MCH to MCHR, read-out: MCHR IC50

T1 sequence (Q99705 whole entry): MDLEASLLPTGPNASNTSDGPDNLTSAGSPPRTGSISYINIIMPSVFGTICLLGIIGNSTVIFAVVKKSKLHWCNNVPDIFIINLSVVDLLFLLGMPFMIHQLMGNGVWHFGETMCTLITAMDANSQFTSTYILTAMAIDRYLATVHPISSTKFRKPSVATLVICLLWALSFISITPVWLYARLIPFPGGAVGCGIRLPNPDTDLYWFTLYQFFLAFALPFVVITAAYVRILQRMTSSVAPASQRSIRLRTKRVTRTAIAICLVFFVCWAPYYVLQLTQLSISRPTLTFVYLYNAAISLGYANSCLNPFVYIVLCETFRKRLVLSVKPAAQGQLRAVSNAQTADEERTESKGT

Row | IC50 [1] [µM] | Ki [2] [µM] | IC50 [3] [µM] | SMILES
1 | 0.1 to 1 |  |  | Cc1ccc2c(c1)nc(C)n2[C@@H]1CC[C@@H](NCC2Cc3ccc(Cl)cc3C2)C1 (relative stereo) [Example 3, trans-(5-Chloro-indan-2-ylmethyl)-[3-(2,5-dimethyl-benzoimidazol-1-yl)-cyclopentyl]-amine]
2 | 0.1 to 1 |  |  | CC(C)(O)c1nc2cc(Cl)ccc2n1[C@H]1CC[C@@H](NCC2Cc3ccc(C(F)(F)F)cc3C2)CC1 (relative stereo) [Example 8, cis-2-(5-Chloro-1-{4-[(5-trifluoromethyl-indan-2-ylmethyl)-amino]-cyclohexyl}-1H-benzoimidazol-2-yl)-propan-2-ol]
3 | 0.1 to 1 |  |  | Cc1ccc2c(c1)nc(C)n2[C@H]1CC[C@@H](NC2Cc3ccccc3C2)CC1 [Example 1, cis-4-(2,5-Dimethyl-benzoimidazol-1-yl)-cyclohexyl]-indan-2-yl-amine; hydrochloride]
4 | 0.1 to 1 |  |  | Cc1ccc2c(c1)nc(C)n2[C@@H]1CC[C@@H](NC[C@H]2Cc3ccc(Br)cc3C2)C1 [Example 2, trans-(S)-(5-Bomo-indan-2-ylmethyl)-[3-(2,5-dimethyl-benzoimidazol-1-yl)-cyclopentyl]-amine]
5 | 0.01 to 0.1 |  |  | Cc1ccc2c(c1)nc(C)n2[C@H]1CC[C@@H](NC[C@H]2Cc3ccc(Br)cc3C2)CC1 [Example 4, cis-(S)-(5-Bromo-indan-2-ylmethyl)-[4-(2,5-dimethyl-benzoimidazole-1-yl)-cyclohexyl]-amine hydrochloride]
6 | 0.1 to 1 |  |  | Cc1ccc2c(c1)nc(C)n2[C@@H]1CC[C@H](NC[C@H]2Cc3ccc(Br)cc3C2)C1 [Example 5, cis-(S)-(5-Bromo-indan-2-ylmethyl)-[3-(2,5-dimethyl-benzoimidazol-1-yl)-cyclopentyl]-amine]
7 | 0.01 to 0.1 |  |  | Cc1ccc2c(c1)nc(C)n2[C@H]1CC[C@@H](NC2Cc3ccc(Cl)cc3C2)CC1 (stereo partly drawn) [Example 6, cis-(5-Chloro-indan-2-yl)-[4-(2,5-dimethyl-benzoimidazol-1-yl)-cyclohexyl]-amine; hydrochloride]
8 | 0.01 to 0.1 | 0.019 | 0.024 | CC(C)(O)c1nc2cc(Cl)ccc2n1[C@H]1CC[C@@H](NC[C@H]2Cc3ccc(Br)cc3C2)CC1 [Example 7, cis-(S)-2-(1-{4-[(5-Bromo-indan-2-ylmethyl)-amino]-cyclohexyl}-5-chloro-1H-benzoimidazol-2-yl)-propan-2-ol]
9 | 0.01 to 0.1 |  |  | CC(C)(O)c1nc2cc(Cl)ccc2n1[C@H]1CC[C@@H](NCC2Cc3ccccc3C2)CC1 [Example 9, cis-2-(5-Chloro-1-{4-[(indan-2-ylmethyl)-amino]-cyclohexyl}-1H-benzoimidazol-2-yl)-propan-2-ol]
10 | 0.01 to 0.1 |  |  | CC(C)(O)c1nc2cc(Cl)ccc2n1[C@H]1CC[C@@H](NCC2Cc3ccc(Cl)cc3C2)CC1 (stereo partly drawn) [Example 10, cis-2-(5-Chloro-1-{4-[(5-chloro-indan-2-ylmethyl)-amino]-cyclohexyl}-1H-benzoimidazol-2-yl)-propan-2-ol]
11 | 0.01 to 0.1 |  |  | Cc1ccc2c(c1)nc(C)n2[C@H]1CC[C@@H](NCC2Cc3ccc(Cl)cc3C2)CC1 (stereo partly drawn) [Example 11, cis-(5-Chloro-indan-2-ylmethyl)-[4-(2,5-dimethyl-benzoimidazol-1-yl)-cyclohexyl]-amine]
12 | 0.1 to 1 |  |  | Cc1ccc2c(c1)nc(C)n2[C@H]1CC[C@@H](NCC2Cc3ccc(C(F)(F)F)cc3C2)CC1 (stereo partly drawn) [Example 12, cis-[4-(2,5-Dimethyl-benzoimidazol-1-yl)-cyclohexyl]-(5-trifluoromethyl-indan-2-ylmethyl)-amine]
13 | 0.1 to 1 |  |  | Cc1ccc2c(c1)nc(C)n2[C@H]1CC[C@@H](NCC2Cc3ccccc3C2)CC1 [Example 13, cis-[4-(2,5-Dimethyl-benzoimidazol-1-yl)-cyclohexyl]-indan-2-ylmethyl-amine]
14 | < 0.01 | 0.0018 | 0.0022 | CC(C)(O)c1nc2cc(Cl)ccc2n1[C@H]1CC[C@@H](NC[C@H]2Cc3ccc(C#N)cc3C2)CC1 [Example 14, cis-(S)-2-({4-[5-Chloro-2-(1-hydroxy-1-methyl-ethyl)-benzoimidazol-1-yl]-cyclohexylamino}-methyl)-indan-5-carbonitrile]
15 | 0.01 to 0.1 |  |  | Cc1ccc2c(c1)nc(C)n2[C@H]1CC[C@@H](NC[C@H]2Cc3ccc(C#N)cc3C2)CC1 [Example 15, cis-(S)-2-{[4-(2,5-Dimethyl-benzoimidazol-1-yl)-cyclohexylamino]-methyl}-indan-5-carbonitrile]
16 | < 0.01 |  |  | Cc1ccc2c(c1)nc(C(C)(C)O)n2[C@H]1CC[C@@H](NC[C@H]2Cc3ccc(C#N)cc3C2)CC1 [Example 16, cis-(S)-2-({4-[2-(1-Hydroxy-1-methyl-ethyl)-5-methyl-benzoimidazol-1-yl]-cyclohexylamino}-methyl)-indan-5-carbonitrile]
17 | 0.1 to 1 |  |  | Cc1ccc2c(c1)nc(C(C)(C)O)n2[C@H]1CC[C@H](NC[C@H]2Cc3ccc(C#N)cc3C2)CC1 [Example 17, trans-(S)-2-({4-[2-(1-Hydroxy-1-methyl-ethyl)-5-methyl-benzoimidazol-1-yl]-cyclohexylamino}-methyl)-indan-5-carbonitrile]
18 | 0.01 to 0.1 |  |  | Cc1ccc2c(c1)nc(C(C)(C)O)n2[C@H]1CC[C@@H](NCC2Cc3ccc(F)cc3C2)CC1 (stereo partly drawn) [Example 18, cis-2-(1-{4-[(5-Fluoro-indan-2-ylmethyl)-amino]-cyclohexyl}-5-methyl-1H-benzoimidazol-2-yl)-propan-2-ol]
19 | 0.1 to 1 |  |  | Cc1ccc2c(c1)nc(C(C)(C)O)n2[C@H]1CC[C@H](NCC2Cc3ccc(F)cc3C2)CC1 (stereo partly drawn) [Example 19, trans-2-(1-{4-[(5-Fluoro-indan-2-ylmethyl)-amino]-cyclohexyl}-5-methyl-1H-benzoimidazol-2-yl)-propan-2-ol]
20 | 0.01 to 0.1 | 0.021 | 0.026 | Cc1ccc2c(c1)nc(C(C)(C)O)n2[C@H]1CC[C@@H](NCC2Cc3ccc(Cl)cc3C2)CC1 (stereo partly drawn) [Example 20, cis-2-(1-{4-[(5-Chloro-indan-2-ylmethyl)-amino]-cyclohexyl}-5-methyl-1H-benzoimidazol-2-yl)-propan-2-ol]
21 | 0.1 to 1 |  |  | Cc1ccc2c(c1)nc(C(C)(C)O)n2[C@H]1CC[C@H](NCC2Cc3ccc(Cl)cc3C2)CC1 (stereo partly drawn) [Example 21, trans-2-(1-{4-[(5-Chloro-indan-2-ylmethyl)-amino]-cyclohexyl}-5-methyl-1H-benzoimidazol-2-yl)-propan-2-ol]
22 | < 0.01 |  |  | CC(C)(O)c1nc2cc(Cl)ccc2n1[C@H]1CC[C@@H](NC[C@@H]2Cc3ccc(C#N)cc3C2)CC1 [Example 22, cis-(R)-2-({4-[5-Chloro-2-(1-hydroxy-1-methyl-ethyl)-benzoimidazol-1H-yl]-cyclohexylamino}-methyl)-indan-5-carbonitrile]
23 | 0.1 to 1 | 0.154 | 0.193 | CC(=O)N(C[C@H]1Cc2ccc(C#N)cc2C1)[C@H]1CC[C@@H](n2c(C(C)(C)O)nc3cc(Cl)ccc32)CC1 [Example 23, cis-(S)—N-{4-[5-Chloro-2-(1-hydroxy-1-methyl-ethyl)-benzoimidazol-1-yl]-cyclohexyl}-N-(5-cyano-indan-2-ylmethyl)-acetamide]
24 | 0.01 to 0.1 |  |  | CC(C)(O)c1nc2cc(Cl)ccc2n1[C@H]1CC[C@@H](NC[C@@H]2Cc3ccc(Br)cc3C2)CC1 [Example 24, cis-(R)-2-(1-{4-[(5-Bromo-indan-2-ylmethyl)-amino]-cyclohexyl}-5-chloro-1H-benzoimidazol-2-yl)-propan-2-ol]
25 | 0.01 to 0.1 |  |  | Cc1nc2cc(C#N)ccc2n1[C@H]1CC[C@@H](NCC2Cc3ccc(Cl)cc3C2)CC1 (stereo partly drawn) [Example 25, cis-1-{4-[(5-Chloro-indan-2-ylmethyl)-amino]-cyclohexyl}-2-methyl-1H-benzoimidazole-5-carbonitrile]
26 | < 0.01 | 0.002 | 0.003 | Cc1nc2cc(F)ccc2n1[C@H]1CC[C@@H](NC[C@H]2Cc3ccc(C#N)cc3C2)CC1 [Example 26, cis-(S)-2-{[4-(5-Fluoro-2-methyl-benzoimidazol-1-yl)-cyclohexylamino]-methyl}-indan-5-carbonitrile]

From patent US7652053B2, “Diaminocycloalkane MCH receptor antagonists” (Hoffmann-La Roche Inc., priority 2006, dated 2010)
